Reference: patent publication US12138256B2, “Treatment of cardiopulmonary disorders” (Bayer Aktiengesellschaft, priority 2021, dated 2024)
“And” between values parts separate entries of the source, which are not always exact repeats. Equal values may be shown once. Read-outs that look alike come from different tables or passages of the source.

Key:
[1] = tested on: thromboxane analog U46619 induced PAH in minipigs with ODQ or L-NAME pretreatment; assay: PAH minipig model under oxidative stress / low NO (pretreatment by ODQ or L-NAME); assay type: in vivo, Göttingen minipig; design: PAP / BP: unit not given beside the values; settings: for BP / PAP: 30 μg/kg nominal dose inhaled
Method: To simulate conditions of oxidative stress or low NO concentrations as assumed to be present in different cardiovascular disorders, comparative example 11 was evaluated with and without pretreatment by ODQ (inhibitor of sGC) or L-NAME (NOS inhibitor). […] In contrast, the effects of Ventavis® under conditions of oxidative stress or low NO concentrations were not enhanced. In addition, also under these pathophysiological conditions the duration of action of comparative example 11 was much longer compared to Ventavis®.

[2] = Protein binding, minipig plasma (fraction unbound); assay type: in vitro ADME
Text: The distribution of a test substance between Transil® (phosphatidylcholine lipid bilayers immobilized on silica beads) and plasma is a characteristic feature of any pharmaceutical compound and is dependent on its extent of binding to plasma proteins. By comparing the distribution between Transil® and buffer with the distribution between Transil® and plasma of any species of interest, the unbound fraction in the plasma of the respective animal species can be calculated in vitro. The respective plasma and buffer concentrations were determined via a radioactivity analysis. A detailed description of the method and its validation was published by Schuhmacher et al. (2).

[3] = tested on: allergen-induced late airway hyperresponsiveness and inflammation in sensitized mice; assay: Chronic asthma model: ovalbumin sensitized BALB/c mice, airway hyperresponsiveness and BAL (C-3.3); assay type: in vivo, mouse; settings: for inhibition at 0.1 mg/kg: Mus musculus, dexamethasone 18 h and 1 h before each Ova challenge, comparative example 11 high dose of 100 μg/kg 2 h before
Method: The study was conducted to investigate whether inhalative treatment with comparative example 11 has a protective effect on the experimentally allergen-induced late airway hyperresponsiveness and inflammation in sensitized mice. Female BALB/c mice were sensitized and boosted with Ovalbumin (Ova) and aluminium hydroxide adjuvant (day 0. 14 and 21) with the exception of the negative control group receiving NaCl. On day 28 and 29. the animals were challenged with Ova aerosol. On day 30, a hyperresponsiveness test followed by bronchoalveolar lavage (BAL) was performed in all animals of all groups. The treatment groups D (10 μg) and E (100 μg) were treated with comparative example 11 inhalationally 2 h before each Ova challenge. Group A and B, the positive and negative control groups, were treated correspondingly with the vehicle. The Ova-sensitized positive control group A should show the full allergic reaction and, in contrast, the sham-sensitized negative control group B should show no allergic response. As a reference group, the animals of group C were treated inhalative with the corticosteroid dexamethasone but—due to its different mechanism of action—18 h and 1 h before each Ova challenge (on day 27, 28 and 29). On day 30, 24 h after Ova challenge in the late allergic phase, lung function—especially RL—was measured in the orotracheally intubated mice and a test on airway hyperresponsiveness was performed (inhalational methacholine provocation in doubling dose steps). […] These inhibitory effects show the successful therapeutic intervention.

Structure (SMILES): O=C(O)c1ccc(CCN(CCc2ccccc2OCc2ccc(-c3ccc(C(F)(F)F)cc3)cc2Cl)[C@H]2CCCc3nc(C(=O)O)ccc32)cc1 [comparative example 11, (5S)-5-{[2-(4-carboxyphenyl)ethyl][2-(2-{[3-chloro-4′-(trifluoromethyl)[biphenyl]-4-yl]methoxy}phenyl)ethyl]amino}-5,6,7,8-tetrahydroquinoline-2-carboxylic acid]
- BP ([1]; L-NAME pretreatment, Time 170): 103.0 and 135.0 and 123.0
- PAP ([1]; L-NAME pretreatment, Time 170): 39.5 and 36.2 and 34.6
- BP ([1]; L-NAME pretreatment, Time 180): 104.0 and 139.0 and 127.0
- PAP ([1]; L-NAME pretreatment, Time 180): 38.9 and 29.1 and 30.8
- BP ([1]; L-NAME pretreatment, Time 190): 104.0 and 137.0 and 127.0
- PAP ([1]; L-NAME pretreatment, Time 190): 38.0 and 25.9 and 28.4
- BP ([1]; L-NAME pretreatment, Time 200): 104.0 and 135.0 and 129.0
- PAP ([1]; L-NAME pretreatment, Time 200): 36.8 and 24.6 and 28.1
- BP ([1]; L-NAME pretreatment, Time 210): 105.0 and 133.0 and 127.0
- PAP ([1]; L-NAME pretreatment, Time 210): 36.5 and 23.9 and 26.6
- BP ([1]; L-NAME pretreatment, Time 220): 107.0 and 131.0 and 127.0
- PAP ([1]; L-NAME pretreatment, Time 220): 36.6 and 23.8 and 25.5
- BP ([1]; L-NAME pretreatment, Time 230): 108.0 and 127.0 and 129.0
- PAP ([1]; L-NAME pretreatment, Time 230): 35.5 and 23.6 and 25.6
- BP ([1]; L-NAME pretreatment, Time 240): 106.0 and 128.0
- PAP ([1]; L-NAME pretreatment, Time 240): 35.0 and 24.0 and 25.0
- BP ([1]; L-NAME pretreatment, Time 250): 106.0 and 126.0 and 130.0
- PAP ([1]; L-NAME pretreatment, Time 250): 34.5 and 23.5 and 24.8
- BP ([1]; L-NAME pretreatment, Time 260): 107.0 and 126.0 and 130.0
- PAP ([1]; L-NAME pretreatment, Time 260): 34.6 and 24.2 and 24.7
- BP ([1]; L-NAME pretreatment, Time 270): 104.0 and 126.0 and 129.0
- PAP ([1]; L-NAME pretreatment, Time 270): 34.1 and 24.0 and 24.3
- BP ([1]; L-NAME pretreatment, Time 280): 103.0 and 125.0 and 129.0
- PAP ([1]; L-NAME pretreatment, Time 280): 33.4 and 23.7 and 24.4
- BP ([1]; L-NAME pretreatment, Time 290): 104.0 and 126.0 and 128.0
- PAP ([1]; L-NAME pretreatment, Time 290): 34.4 and 23.4 and 24.2
- BP ([1]; L-NAME pretreatment, Time 300): 105.0 and 125.0 and 127.0
- PAP ([1]; L-NAME pretreatment, Time 300): 34.2 and 24.1 and 24.0
- BP ([1]; L-NAME pretreatment, Time 310): 103.0 and 125.0 and 128.0
- PAP ([1]; L-NAME pretreatment, Time 310): 33.3 and 23.6 and 24.3
- BP ([1]; L-NAME pretreatment, Time 320): 104.0 and 125.0 and 126.0
- PAP ([1]; L-NAME pretreatment, Time 320): 33.8 and 23.1 and 24.0
- BP ([1]; L-NAME pretreatment, Time 330): 105.0 and 126.0 and 125.0
- PAP ([1]; L-NAME pretreatment, Time 330): 34.1
- BP ([1]; L-NAME pretreatment, Time 340): 104.0 and 126.0 and 125.0
- BP ([1]; without pretreatment, Time 170): 90.0 and 108.0
- PAP ([1]; without pretreatment, Time 170): 39.7 and 38.0 and 42.6
- BP ([1]; without pretreatment, Time 180): 90.0 and 108.0
- PAP ([1]; without pretreatment, Time 180): 38.5 and 37.1 and 41.5
- BP ([1]; without pretreatment, Time 190): 90.0 and 107.0 and 108.0
- PAP ([1]; without pretreatment, Time 190): 37.0 and 35.9 and 40.3
- BP ([1]; without pretreatment, Time 200): 89.0 and 109.0
- PAP ([1]; without pretreatment, Time 200): 36.5 and 35.2 and 39.0
- BP ([1]; without pretreatment, Time 210): 89.0 and 108.0 and 109.0
- PAP ([1]; without pretreatment, Time 210): 35.6 and 34.2 and 38.5
- BP ([1]; without pretreatment, Time 220): 88.0 and 110.0 and 108.0
- PAP ([1]; without pretreatment, Time 220): 34.7 and 33.9 and 36.8
- BP ([1]; without pretreatment, Time 230): 87.0 and 108.0
- PAP ([1]; without pretreatment, Time 230): 34.8 and 33.4 and 37.1
- BP ([1]; without pretreatment, Time 240): 87.0 and 109.0 and 108.0
- PAP ([1]; without pretreatment, Time 240): 34.5 and 33.6 and 37.0
- BP ([1]; without pretreatment, Time 250): 86.0 and 110.0 and 109.0
- PAP ([1]; without pretreatment, Time 250): 34.3 and 33.5 and 36.7
- BP ([1]; without pretreatment, Time 260): 87.0 and 109.0 and 110.0
- PAP ([1]; without pretreatment, Time 260): 34.1 and 33.3 and 36.5
- BP ([1]; without pretreatment, Time 270): 86.0 and 108.0 and 110.0
- PAP ([1]; without pretreatment, Time 270): 34.0 and 33.6 and 36.2
- BP ([1]; without pretreatment, Time 280): 88.0 and 109.0
- PAP ([1]; without pretreatment, Time 280): 34.5 and 33.5 and 35.6
- BP ([1]; without pretreatment, Time 290): 88.0 and 108.0 and 110.0
- PAP ([1]; without pretreatment, Time 290): 34.7 and 33.6 and 35.5
- BP ([1]; without pretreatment, Time 300): 86.0 and 107.0 and 111.0
- PAP ([1]; without pretreatment, Time 300): 34.1 and 33.2 and 35.4
- BP ([1]; without pretreatment, Time 310): 85.0 and 107.0 and 109.0
- PAP ([1]; without pretreatment, Time 310): 34.0 and 33.6 and 35.1
- BP ([1]; without pretreatment, Time 320): 85.0 and 108.0 and 109.0
- PAP ([1]; without pretreatment, Time 320): 34.5 and 34.0 and 35.8
- BP ([1]; without pretreatment, Time 330): 85.0 and 108.0 and 109.0
- PAP ([1]; without pretreatment, Time 330): 34.8 and 34.0 and 35.9
- BP ([1]; without pretreatment, Time 340): 85.0
- effect on PAP after pretreatment of ODQ or L-NAME ([1]; inhaled, comparative example 11 30 μg/kg ND, Ventavis 10 μg/kg nominal dose): enhanced decrease of PAP without effects on systemic BP
- fraction unbound ([2]; Minipig (female) plasma, read-out: Fraction unbound): 0.00348
- fraction unbound ([2]; plasma (Transil beads), minipig plasma, read-out: plasma fu (fraction unbound)): 0.00348
- inhibition at 0.1 mg/kg ([3]; read-out: inhibition of the airway hyperresponsiveness (ED100)): 38%
- inhibition at 0.1 mg/kg ([3]; read-out: inhibition of the airway hyperresponsiveness (ED150)): 32%
- inhibition of the eosinophilic influx ([3]; high dose group (100 μg)): 31%
- effect on airway hyperresponsiveness ([3]; low dose (10 μg)): no or only marginal effects
- inhibition of the eosinophilic influx ([3]; low dose group (10 μg)): 19%
